Measured values reported in patent US9492471B2, “Methods of treating a disease or disorder associated with Bruton'S Tyrosine Kinase” (Celgene Avilomics Research, Inc., priority 2013, dated 2016).
Where two headings read alike, the source gives them in different places.

Target: T1, MYO3b (Homo sapiens, UniProt Q8WXR4)
T1 construct: purchased Reaction Biology Corp
T1 sequence (Q8WXR4 1-1341): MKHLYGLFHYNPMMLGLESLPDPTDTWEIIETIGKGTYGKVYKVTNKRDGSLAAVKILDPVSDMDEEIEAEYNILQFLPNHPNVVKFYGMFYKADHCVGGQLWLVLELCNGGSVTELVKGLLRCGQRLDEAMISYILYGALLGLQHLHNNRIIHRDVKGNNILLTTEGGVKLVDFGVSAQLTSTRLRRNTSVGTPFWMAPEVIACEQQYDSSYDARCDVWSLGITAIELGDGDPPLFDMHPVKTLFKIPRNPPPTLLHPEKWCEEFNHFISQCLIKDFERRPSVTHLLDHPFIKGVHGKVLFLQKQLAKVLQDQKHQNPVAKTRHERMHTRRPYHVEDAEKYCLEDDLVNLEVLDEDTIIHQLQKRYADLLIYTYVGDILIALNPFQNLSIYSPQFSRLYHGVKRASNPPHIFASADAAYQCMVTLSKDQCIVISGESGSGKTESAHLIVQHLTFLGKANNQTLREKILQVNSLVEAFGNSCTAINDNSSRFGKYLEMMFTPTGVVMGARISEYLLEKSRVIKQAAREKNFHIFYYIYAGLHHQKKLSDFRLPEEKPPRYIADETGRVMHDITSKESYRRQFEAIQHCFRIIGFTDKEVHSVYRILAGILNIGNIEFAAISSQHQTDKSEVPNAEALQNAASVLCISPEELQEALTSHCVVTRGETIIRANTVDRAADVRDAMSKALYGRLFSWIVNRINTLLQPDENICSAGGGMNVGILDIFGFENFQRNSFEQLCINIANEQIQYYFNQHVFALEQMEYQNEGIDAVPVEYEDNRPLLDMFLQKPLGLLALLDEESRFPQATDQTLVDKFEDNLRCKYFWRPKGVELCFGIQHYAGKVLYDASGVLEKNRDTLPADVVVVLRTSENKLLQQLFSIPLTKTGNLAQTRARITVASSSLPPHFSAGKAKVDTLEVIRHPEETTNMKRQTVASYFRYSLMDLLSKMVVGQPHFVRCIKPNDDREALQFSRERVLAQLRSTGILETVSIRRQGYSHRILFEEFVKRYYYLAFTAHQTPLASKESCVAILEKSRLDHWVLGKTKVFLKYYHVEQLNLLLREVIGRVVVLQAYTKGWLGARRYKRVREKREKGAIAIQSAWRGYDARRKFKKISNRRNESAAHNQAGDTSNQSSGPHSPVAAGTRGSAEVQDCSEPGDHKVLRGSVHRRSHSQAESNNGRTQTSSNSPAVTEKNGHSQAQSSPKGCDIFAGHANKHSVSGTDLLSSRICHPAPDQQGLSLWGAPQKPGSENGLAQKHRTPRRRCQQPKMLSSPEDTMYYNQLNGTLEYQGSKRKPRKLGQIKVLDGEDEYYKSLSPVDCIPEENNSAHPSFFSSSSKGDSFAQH
Assay: HotSpot kinase profiling
Format: biochemical
Method in brief: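 Activity is measured by radiolabel transfer captured on P81 filters after a 2 h room-temperature reaction of kinase, substrate and cofactors. Values are percent inhibition against DMSO.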

C=CC(=O)Nc1cccc(Nc2nc(Nc3ccc(OCCOC)c(F)c3)ncc2F)c1 [Compound 2]
inhibition at 3 µM: -2.59%
remaining activity at 3 µM (read-out: % Enzyme Activity (relative to DMSO controls) Run 1): 104%
remaining activity at 3 µM (read-out: % Enzyme Activity (relative to DMSO controls) Run 2): 102%
